Tested on: CHO cell line (GAA LEC clone R3.3) expressing rh-GAA
Assay: Phosphorylation efficiency of rh-GAA from cultures containing mannosidase inhibitors ([32P] incorporation by GlcNAc phosphotransferase)
Format: cell-based, Chinese Hamster
Conditions: increasing amounts of inhibitor alone vs no mannosidase inhibitors (FIG. 1)
Protocol: To determine whether mannosidase inhibitors can increase phosphorylation efficiency of recombinant human acid alpha glucosidase (rh-GAA), a CHO cell line (GAA LEC clone R3.3) expressing rh-GAA was grown in various conditions that contained different amounts of the following mannosidase the inhibitors: Kifunensin; Deoxymannojirimycin (DMJ); or combinations of both inhibitors. Conditioned media from each inhibitor condition containing 6 μg of GAA (based on GAA activity assay) was then incubated with purified bovine GlcNAc phosphotransferase (Pt'ase) and [^32P]UDP-GlcNAc. Subsequently, each phosphorylation reaction was loaded onto a concanavalin A-sepharose column to capture glycoproteins, e.g., rh-GAA. The concanavalin A-sepharose was washed and the resin was counted in a liquid scintillation counter to measure the ^32P incorporation, i.e., the extent of phosphorylation on rh-GAA. The results are summarized in Table 1 below and FIGS. 1 and 2.

Row | SMILES | effect on the phosphorylation reaction of rh-GAA (in words)
1 | OC[C@H]1NC[C@@H](O)[C@@H](O)[C@@H]1O [DMJ only, deoxymannojirimycin] | greatly enhance the phosphorylation reaction
2 | O=C1N[C@@H]2[C@@H](O)[C@@H](O)[C@H](O)[C@@H](CO)N2C1=O [Kifunensin only, kifunensine] | greatly enhance the phosphorylation reaction

— US20030124652A1, “Methods of producing high mannose glycoproteins in complex carbohydrate deficient cells” (NOVAZYME PHARMACEUTICALS, INC., priority 2001, published 2003)
